Reference: patent US20260022142A1, “MACROCYCLIC IMMUNOMODULATORS” (Bristol-Myers Squibb Company, priority 2022, published 2026)
Numbered stars: 1 amine (or outer) side, 2 acyl side, 3 side chain; on linkers, the order of the positions; unused ones are H or OH. Bridge positions count the residues as written; N and C are the ends. Square brackets hold non-standard residues; d marks the D form. Peptide text beside a SMILES is read from it. * marks the point of attachment. ξ: configuration not given here. Trp(βS-Me) = C[C@@H](c1c[nH]c2ccccc12)[C@H](N)C(=O)O; Phe(3-CF3) = N[C@@H](Cc1cccc(C(F)(F)F)c1)C(=O)O; Phe(4-COOH) = N[C@@H](Cc1ccc(C(=O)O)cc1)C(=O)O; Bip = N[C@@H](Cc1ccc(-c2ccccc2)cc1)C(=O)O; Tyr(3-F) = N[C@@H](Cc1ccc(O)c(F)c1)C(=O)O; Phe(3-Me) = Cc1cccc(C[C@H](N)C(=O)O)c1; γGlu = O=C(O)[C@H](CCC(=O)[*:2])N[*:1]; NH(CH2)12COOH = O=C(O)CCCCCCCCCCCCN*; Val(3-OH) = CC(C)(O)[C@H](N)C(=O)O; mTyr = N[C@@H](Cc1cccc(O)c1)C(=O)O; hArg = N=C(N)NCCCC[C@H](N)C(=O)O; 4Pal = N[C@@H](Cc1ccncc1)C(=O)O; 3Thi = N[C@@H](Cc1ccsc1)C(=O)O; Cha = N[C@@H](CC1CCCCC1)C(=O)O; Cit = NC(=O)NCCC[C@H](N)C(=O)O; Thr(3ξ) = CC(O)[C@H](N)C(=O)O; 12Ado = NCCCCCCCCCCCC(=O)O; dDab = NCC[C@@H](N)C(=O)O; Carboxymethyl = O=C(O)C*; Nle = CCCC[C@H](N)C(=O)O; Orn = NCCC[C@H](N)C(=O)O; Aun = NCCCCCCCCCCC(=O)O; Dab = NCC[C@H](N)C(=O)O; Dap = NC[C@H](N)C(=O)O; AEEA = NCCOCCOCC(=O)O; Ac3c = NC1(C(=O)O)CC1

target: T1, PD-1/PD-L1 interaction (PE-labeled human PD-L1-Ig binding to Jurkat cell line over-expressing human PD-1) (Homo sapiens, UniProt Q15116); experiment: Jurkat-PD-1 Cell Binding High-Content Screening Assay (CBA); type: cell-based; conditions: Jurkat cell line over-expressing human PD-1; PE-labeled PD-L1-Ig 20 nM final; read-out: Jurkat hPD1-PDL1 IC50
T1 construct: expressed in transfected cells; host or cells: Jurkat
T1 sequence (Q15116 25-288): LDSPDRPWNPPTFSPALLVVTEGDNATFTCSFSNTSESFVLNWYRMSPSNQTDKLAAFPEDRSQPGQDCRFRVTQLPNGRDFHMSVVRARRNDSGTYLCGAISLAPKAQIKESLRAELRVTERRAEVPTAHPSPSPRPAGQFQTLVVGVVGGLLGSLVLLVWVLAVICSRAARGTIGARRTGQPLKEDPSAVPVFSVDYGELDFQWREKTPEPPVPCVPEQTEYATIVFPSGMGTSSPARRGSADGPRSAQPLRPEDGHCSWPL
How it was run: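 Jurkat cells stably over-expressing human PD-1 were seeded in DMEM with 10% fetal calf serum and pre-incubated with compound for 2 h at 37° C. PE-labeled human PD-L1-Ig was then added at 20 nM final for 1 hour, after which cells were fixed with paraformaldehyde, Hoechst-stained and imaged by high-content microscopy.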

| IC50 [nM] | SMILES |
| --- | --- |
| 11 | Cc1cccc(C[C@@H]2NC(=O)[C@H](CC(=O)O)NC(=O)[C@H](Cc3ccc(OCC(=O)O)cc3)NC(=O)[C@H](CN)NC(=O)CSC[C@@H](C(=O)N[C@@H](CCC(=O)O)C(=O)NCCCCCCCCCCC(=O)O)NC(=O)[C@H]([C@@H](C)O)NC(=O)[C@H](C(C)C)NC(=O)[C@H](CC3CCCCC3)NC(=O)[C@H](CCN)NC(=O)[C@@H](CC(C)C)NC(=O)[C@H](CCCN)NC(=O)[C@H](CCC(=O)O)NC(=O)[C@H](Cc3ccc(-c4ccccc4)cc3)NC(=O)[C@H](C(C)C)NC2=O)c1 [Compound 1045] ({CH2CO}-[Dap]Y(Carboxymethyl)D[Phe(3-Me)]V[Bip]E[Orn][dL][Dab][Cha]VTCE[Aun]-OH; thioether N-14) |
| 15.4 | CC(C)C[C@H]1NC(=O)[C@H](CCCN)NC(=O)[C@H](C(C)C)NC(=O)[C@H](Cc2ccc(-c3ccccc3)cc2)NC(=O)[C@H](C(C)C)NC(=O)[C@H](Cc2c[nH]c3ccccc23)NC(=O)[C@H](CC(=O)O)NC(=O)[C@H](Cc2ccc(OCC(=O)O)cc2)NC(=O)[C@H](CCCCNC(=N)N)NC(=O)CSC[C@@H](C(=O)NCC(=O)NCCOCCOCC(=O)NCCCCCCCCCCCCC(=O)O)NC(=O)[C@H](CO)NC(=O)[C@H](C(C)C)NC(=O)[C@H](CC2CCCCC2)NC(=O)[C@H](CCN)NC1=O [Compound 3043] ({CH2CO}-[hArg]Y(Carboxymethyl)DWV[Bip]V[Orn][dL][Dab][Cha]VSCG[AEEA]-{NH(CH2)12COOH}; thioether N-14) |
| 68.8 | CC(C)C[C@H]1NC(=O)[C@H](CCCN)NC(=O)[C@H](Cc2ccc(OCC(=O)O)cc2)NC(=O)[C@H](Cc2ccc(-c3ccccc3)cc2)NC(=O)[C@H](Cc2ccc(OCC(=O)O)cc2)NC(=O)[C@H]([C@@H](C)c2c[nH]c3ccccc23)NC(=O)[C@H](CC(=O)O)NC(=O)[C@H](Cc2ccc(OCC(=O)O)cc2)NC(=O)[C@H](CCCNC(=N)N)NC(=O)CSC[C@@H](C(=O)NC2(C(=O)NCCCCCCCCCCC(=O)O)CC2)NC(=O)[C@H]([C@@H](C)O)NC(=O)[C@H](C(C)C)NC(=O)[C@H](CC2CCCCC2)NC(=O)[C@H](CCN)NC1=O [Compound 2135] ({CH2CO}-RY(Carboxymethyl)D[Trp(βS-Me)]Y(Carboxymethyl)[Bip]Y(Carboxymethyl)[Orn][dL][Dab][Cha]VTC[Ac3c][Aun]-OH; thioether N-14) |
| 13.8 | CC(C)C[C@H]1NC(=O)[C@H](CCN)NC(=O)[C@H](C(C)C)NC(=O)[C@H](Cc2ccc(-c3ccccc3)cc2)NC(=O)[C@H](C(C)C)NC(=O)[C@H](Cc2c[nH]c3ccccc23)NC(=O)[C@H](CC(=O)O)NC(=O)[C@H](Cc2ccc(OCC(=O)O)cc2)NC(=O)[C@H](Cc2ccsc2)NC(=O)CSC[C@@H](C(=O)NCCOCCOCC(=O)N[C@@H](CCN)C(=O)NCCCCCCCCCCC(=O)O)NC(=O)[C@H](CCCNC(=N)N)NC(=O)[C@H](C(C)C)NC(=O)[C@H](CC2CCCCC2)NC(=O)[C@H](CCN)NC1=O [Compound 3283] ({CH2CO}-[3Thi]Y(Carboxymethyl)DWV[Bip]V[Dab][dL][Dab][Cha]VRC[AEEA][Dab][Aun]-OH; thioether N-14) |
| 63.6 | CCCC[C@@H]1NC(=O)CSC[C@@H](C(=O)N[C@H](CCN)C(=O)NCCOCCOCC(=O)N[C@@H](CCC(=O)NCCOCCOCC(=O)NCCCCCCCCCCCCC(=O)O)C(=O)O)NC(=O)[C@H](CCC(=O)O)NC(=O)[C@H](C(C)C)NC(=O)[C@H](CC2CCCCC2)NC(=O)[C@H](CCN)NC(=O)[C@@H](CC(C)C)NC(=O)[C@H](CCCN)NC(=O)[C@H](Cc2ccc(OCC(=O)O)cc2)NC(=O)[C@H](Cc2ccc(-c3ccccc3)cc2)NC(=O)[C@H](Cc2ccc(C(=O)O)cc2)NC(=O)[C@H](Cc2cccc(C(F)(F)F)c2)NC(=O)[C@H](CC(=O)O)NC(=O)[C@H](Cc2ccc(OCC(=O)O)cc2)NC1=O [Compound 3897] ({CH2CO}-[Nle]Y(Carboxymethyl)D[Phe(3-CF3)][Phe(4-COOH)][Bip]Y(Carboxymethyl)[Orn][dL][Dab][Cha]VEC[dDab][AEEA][γGlu][AEEA]-{NH(CH2)12COOH}; thioether N-14) |
| 185 | Cc1cccc(C[C@@H]2NC(=O)[C@H](CC(=O)O)NC(=O)[C@H](Cc3ccc(OCC(=O)O)cc3)NC(=O)[C@@H](CCN)NC(=O)CSC[C@@H](C(=O)N[C@@H](CCN)C(=O)NCCCCCCCCCCC(=O)O)NC(=O)[C@H](CO)NC(=O)[C@H](C(C)(C)O)NC(=O)[C@H](CC3CCCCC3)NC(=O)[C@H](CCN)NC(=O)[C@@H](CC(C)C)NC(=O)[C@H](CCCN)NC(=O)[C@H](Cc3ccc(OCC(=O)O)cc3)NC(=O)[C@H](Cc3ccc(-c4ccccc4)cc3)NC(=O)[C@H](Cc3ccc(OCC(=O)O)cc3)NC2=O)c1 [Compound 2236] ({CH2CO}-[dDab]Y(Carboxymethyl)D[Phe(3-Me)]Y(Carboxymethyl)[Bip]Y(Carboxymethyl)[Orn][dL][Dab][Cha][Val(3-OH)]SC[Dab][Aun]-OH; thioether N-14) |
| 218 | CC(C)C[C@H]1NC(=O)[C@H](CCN)NC(=O)[C@H](Cc2ccc(O)cc2)NC(=O)[C@H](Cc2ccc(-c3ccccc3)cc2)NC(=O)[C@H](Cc2ccc(O)cc2)NC(=O)[C@H](Cc2cccc(O)c2)NC(=O)[C@H](CC(=O)O)NC(=O)[C@H](Cc2ccc(OCC(=O)O)cc2)NC(=O)[C@H](CN)NC(=O)CSC[C@@H](C(=O)N[C@@H](CCN)C(=O)NCCCCCCCCCCC(=O)O)NC(=O)[C@@H](CCN)NC(=O)[C@H](C(C)C)NC(=O)[C@H](CC2CCCCC2)NC(=O)[C@H](CCN)NC1=O [Compound 2080] ({CH2CO}-[Dap]Y(Carboxymethyl)D[mTyr]Y[Bip]Y[Dab][dL][Dab][Cha]V[dDab]C[Dab][Aun]-OH; thioether N-14) |
| 43.2 | Cc1cccc(C[C@@H]2NC(=O)[C@H](CC(=O)O)NC(=O)[C@H](Cc3ccc(OCC(=O)O)cc3)NC(=O)[C@H](Cc3ccncc3)NC(=O)CSC[C@@H](C(=O)N[C@@H](CCN)C(=O)NCCCCCCCCCCC(=O)O)NC(=O)[C@H]([C@@H](C)O)NC(=O)[C@H](C(C)C)NC(=O)[C@H](CC3CCCCC3)NC(=O)[C@H](CCN)NC(=O)[C@@H](CC(C)C)NC(=O)[C@H](CCCN)NC(=O)[C@H](CCCNC(N)=O)NC(=O)[C@H](Cc3ccc(-c4ccccc4)cc3)NC(=O)[C@H](C(C)C)NC2=O)c1 [Compound 2831] ({CH2CO}-[4Pal]Y(Carboxymethyl)D[Phe(3-Me)]V[Bip][Cit][Orn][dL][Dab][Cha]VTC[Dab][Aun]-OH; thioether N-14) |
| 7.2 | CC(C)C[C@H]1NC(=O)[C@H](CCCN)NC(=O)[C@H](C(C)C)NC(=O)[C@H](Cc2ccc(-c3ccccc3)cc2)NC(=O)[C@H](C(C)C)NC(=O)[C@H](Cc2ccc(O)c(F)c2)NC(=O)[C@H](CC(=O)O)NC(=O)[C@H](Cc2ccc(OCC(=O)O)cc2)NC(=O)[C@H](CN)NC(=O)CSC[C@@H](C(=O)N[C@@H](CCN)C(=O)NCCCCCCCCCCC(=O)O)NC(=O)[C@H](CCCCN)NC(=O)[C@H](C(C)C)NC(=O)[C@H](CC2CCCCC2)NC(=O)[C@H](CCN)NC1=O [Compound 2030] ({CH2CO}-[Dap]Y(Carboxymethyl)D[Tyr(3-F)]V[Bip]V[Orn][dL][Dab][Cha]VKC[Dab][Aun]-OH; thioether N-14) |
| 23.9 | Cc1cccc(C[C@@H]2NC(=O)[C@H](CC(=O)O)NC(=O)[C@H](Cc3ccc(OCC(=O)O)cc3)NC(=O)[C@H](CCCCNC(=N)N)NC(=O)CSC[C@@H](C(=O)N[C@@H](CCCN)C(=O)N[C@@H](CO)C(=O)NCCCCCCCCCCCC(=O)O)NC(=O)[C@H](CO)NC(=O)[C@H](C(C)O)NC(=O)[C@H](CC3CCCCC3)NC(=O)[C@H](CCN)NC(=O)[C@@H](CC(C)C)NC(=O)[C@H](CCCN)NC(=O)[C@H](CCCNC(N)=O)NC(=O)[C@H](Cc3ccc(-c4ccccc4)cc3)NC(=O)[C@H](C(C)C)NC2=O)c1 (stereo partly drawn) [Compound 3591] ({CH2CO}-[hArg]Y(Carboxymethyl)D[Phe(3-Me)]V[Bip][Cit][Orn][dL][Dab][Cha][Thr(3ξ)]SC[Orn]S[12Ado]-OH; thioether N-14) |
| 4.7 | Cc1cccc(C[C@@H]2NC(=O)[C@H](CC(=O)O)NC(=O)[C@H](Cc3ccc(OCC(=O)O)cc3)NC(=O)[C@H](Cc3cnc[nH]3)NC(=O)CSC[C@@H](C(=O)N[C@@H](CCN)C(=O)NCCCCCCCCCCC(=O)O)NC(=O)[C@H](CO)NC(=O)[C@H](C(C)(C)O)NC(=O)[C@H](CC3CCCCC3)NC(=O)[C@H](CCN)NC(=O)[C@@H](CC(C)C)NC(=O)[C@H](CCCN)NC(=O)[C@H](Cc3ccc(OCC(=O)O)cc3)NC(=O)[C@H](Cc3ccc(-c4ccccc4)cc3)NC(=O)[C@H](Cc3ccc(OCC(=O)O)cc3)NC2=O)c1 [Compound 2219] ({CH2CO}-HY(Carboxymethyl)D[Phe(3-Me)]Y(Carboxymethyl)[Bip]Y(Carboxymethyl)[Orn][dL][Dab][Cha][Val(3-OH)]SC[Dab][Aun]-OH; thioether N-14) |
| 14.4 | CC(C)C[C@H]1NC(=O)[C@H](CCCN)NC(=O)[C@H](CCC(=O)O)NC(=O)[C@H](Cc2ccc(-c3ccccc3)cc2)NC(=O)[C@H](C(C)C)NC(=O)[C@H](Cc2c[nH]c3ccccc23)NC(=O)[C@H](CC(=O)O)NC(=O)[C@H](Cc2ccc(OCC(=O)O)cc2)NC(=O)[C@H](CN)NC(=O)CSC[C@@H](C(=O)NCCOCCOCC(=O)N[C@@H](CCN)C(=O)NCCCCCCCCCCC(=O)O)NC(=O)[C@H](CCCCN)NC(=O)[C@H](C(C)C)NC(=O)[C@H](CC2CCCCC2)NC(=O)[C@H](CCN)NC1=O [Compound 2657] ({CH2CO}-[Dap]Y(Carboxymethyl)DWV[Bip]E[Orn][dL][Dab][Cha]VKC[AEEA][Dab][Aun]-OH; thioether N-14) |
| 19.7 | Cc1cccc(C[C@@H]2NC(=O)[C@H](CC(=O)O)NC(=O)[C@H](Cc3ccc(OCC(=O)O)cc3)NC(=O)[C@H](CN)NC(=O)CSC[C@@H](C(=O)N[C@@H](CCCN)C(=O)NCCCCCCCCCCC(=O)O)NC(=O)[C@H](CCC(=O)O)NC(=O)[C@H](C(C)C)NC(=O)[C@H](CC3CCCCC3)NC(=O)[C@H](CCN)NC(=O)[C@@H](CC(C)C)NC(=O)[C@H](CCN)NC(=O)[C@H](Cc3ccc(OCC(=O)O)cc3)NC(=O)[C@H](Cc3ccc(-c4ccccc4)cc3)NC(=O)[C@H](Cc3ccc(OCC(=O)O)cc3)NC2=O)c1 [Compound 2856] ({CH2CO}-[Dap]Y(Carboxymethyl)D[Phe(3-Me)]Y(Carboxymethyl)[Bip]Y(Carboxymethyl)[Dab][dL][Dab][Cha]VEC[Orn][Aun]-OH; thioether N-14) |
